Structures can show the parent of a compound that is named as a salt.

This experiment concerns the target T1, DP receptor (Homo sapiens, UniProt Q13258).
T1 construct: the human cell line LS174T, which expresses the endogenous DP receptor; endogenous in cells; host or cells: LS174T human cell line
T1 sequence (Q13258 1-359): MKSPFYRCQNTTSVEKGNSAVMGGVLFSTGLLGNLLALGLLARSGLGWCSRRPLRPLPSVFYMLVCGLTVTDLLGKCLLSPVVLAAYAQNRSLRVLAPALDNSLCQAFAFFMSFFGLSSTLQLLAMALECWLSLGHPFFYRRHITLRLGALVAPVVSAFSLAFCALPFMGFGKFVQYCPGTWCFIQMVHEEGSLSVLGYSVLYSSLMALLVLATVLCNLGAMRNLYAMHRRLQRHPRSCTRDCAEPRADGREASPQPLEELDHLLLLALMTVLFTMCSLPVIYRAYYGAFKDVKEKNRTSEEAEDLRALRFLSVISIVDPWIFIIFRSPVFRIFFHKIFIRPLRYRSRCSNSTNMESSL
In words: SPA cAMP assay in human LS174 T cells (human DP functional assay). As to conditions: inhibition of PGD2 (15 nM final) stimulated cAMP, LS174T cells expressing endogenous DP receptor. It counts as cell-based. Here is the method: The inhibitory effects of the compounds according to the invention are assessed in a human DP functional assay. A cAMP assay is employed using the human cell line LS174T, which expresses the endogenous DP receptor.
Protocol for SPA cAMP Assay in Human LS174 T Cells
• 1) Add equal volumes of tracer, antiserum and SPA anti-rabbit reagent to a bottle, ensuring that a sufficient volume of this mixture is prepared for the desired number of wells (150 μL/well). • 2) Mix thoroughly. • 3) This immunoreagent solution should be freshly prepared before each assay and not re-used.
Add 50 μL of […] IBMX into 100 mL PBS to make a final concentration of 100 μM and sonicate at 30° C. for 20 minutes.
Before each assay, it is freshly prepared. Add 3 μL of 10 mM stock solution to 20 mL DMSO, mix it thoroughly, and transfer 10 mL to 40 mL PBS.
Compound dilution is carried out in Biomex 2000 (Beckman) using Method 1_cAMP DP 11 points.
5 μL of each compound from the 10 mM stock compound plates is transferred to the wells of a 96-well plate respectively as below.
Fill the plate with 45 μL of DMSO except column 7 is filled with 28 μL DMSO. Pipette column 1 thoroughly, and transfer 12 μL into column 7 parallel. Perform 1:10 serial dilution from column 1 to column 6 and from column 7 to column 11 by transfer 5 μL to 45 μL DMSO to make following concentrations:
Fill a new 96-well plate with 247.5 μL of compound dilution buffer. Transfer 2.5 μL of serially diluted compounds from above plate to the new plate (1:100 dilution) as following:
Cell Growth • 1. […] Remove growth medium from cells. Cells in T165 flask are washed twice with 4 mL Trypsin followed by incubation at 37° C. and 5% CO2 for 3 minutes. • 4. Add 10 mL of medium and pipette thoroughly to separate the cells and count the cells. • 5. […] Assay Procedure Day 1 • Seed 45,000 cells/well in 200 μL medium in 96-well plates. Incubate the cell plate at 37° C., 5% CO2 and 95% humidity overnight. Day 2 • 1. Perform compound dilution. • 2. Prepare assay buffer, lysis buffer 1 & 2, PGD2 and standard. • 3. Aspirate media from the cells and add 100 μL of compound solution using Zymark Sciclone-ALH/FD protocol cAMP DP. • 4. Incubate the cells at 37° C., 5% CO2 and 95% humidity for 15 minutes. • 5. […] Aspirate media from the cells and add 50 μL of lysis buffer 1 using Zymark protocol cAMP DP lysis, and incubate at room temperature with shaking for 30 minutes. • 7. Add 150 μL immunoreagent to all wells (a total volume of 200 μL/well). • 8. Seal the plates and shake for 2 minutes, put into the chamber of the Wallac microtitre plate μ scintillation counter for 16 hours. […] Data Processing Set up standard curve of cAMP versus CPM.
The cAMP concentrations (pmol/mL) of unknown samples are calculated from a standard curve of cAMP versus CPM. % inhibition is calculated using the following formula: […]
As for `COc1ccc(CCNc2cc(-c3ccc(F)c(CNCCN(C)C)c3)nc(OC)n2)cc1` [Example 13(d), N-(2-Fluoro-5-{2-methoxy-6-[2-(4-methoxy-phenyl)-ethylamino]-pyrimidin-4-yl}-benzyl)-N′,N′-dimethyl-ethane-1,2-diamine hydrochloride], half-maximal inhibition (IC50) was put at 56 nM.

Consider `COc1ccc(CCNc2cc(-c3ccc4[nH]cnc4c3)nc(OC)n2)cc1` [Example 14(a), [6-(1H-Benzoimidazol-5-yl)-2-methoxy-pyrimidin-4-yl]-[2-(4-methoxy-phenyl)-ethyl]-amine], for which the half-maximal inhibitory concentration (IC50) is 2.7 nM. This IC50 lies about 21-fold lower than the previous one.

`COc1ccc(CCNc2cc(-c3ccc4[nH]c(=O)oc4c3)nc(OC)n2)cc1` [Example 14(c), 6-{2-Methoxy-6-[2-(4-methoxy-phenyl)-ethylamino]-pyrimidin-4-yl}-3H-benzooxazol-2-one] had an IC50 of 7 nM.

On to `COc1ccc(CCNc2cc(-c3cccc(O)c3)nc(OC)n2)cc1` [Example 15(a), 3-{2-Methoxy-6-[2-(4-methoxy-phenyl)-ethylamino]-pyrimidin-4-yl}-phenol hydrochloride], for which 0.1 nM corresponded to half-maximal inhibition (IC50).

Consider `COc1nc(NCCc2ccc(Cl)cc2Cl)cc(-c2cccc(C(C)(C)C(=O)O)c2)n1` [Example 15(d), 2-(3-{6-[2-(2,4-Dichloro-phenyl)-ethylamino]-2-methoxy-pyrimidin-4-yl}-phenyl)-2-methyl-propionic acid hydrochloride], for which the IC50 turned out to be 0.3 nM. This IC50 lies about 3-fold higher than the previous one.

`COc1ccc(CCNc2cc(-c3cccc(C(=O)O)c3)nc(SC)n2)cc1OC` [Example 16(b), 3-{6-[2-(3,4-Dimethoxy-phenyl)-ethylamino]-2-methylsulfanyl-pyrimidin-4-yl}-benzoic acid]: the IC50 amounted to 243 nM.

In the case of `COc1ccc(CCNc2cc(-c3ccc(OC)c(OC)c3)nc(OC(C)C)n2)cc1OC` [Example 17(a), [2-(3,4-Dimethoxy-phenyl)-ethyl]-[6-(3,4-dimethoxy-phenyl)-2-isopropoxy-pyrimidin-4-yl]-amine], half-maximal inhibition (IC50) required 6730 nM.

On to `CCOc1nc(NCCc2ccc(OC)c(OC)c2)cc(-c2ccc(OC)c(OC)c2)n1` [Example 17(b), [6-(3,4-Dimethoxy-phenyl)-2-ethoxy-pyrimidin-4-yl]-[2-(3,4-dimethoxy-phenyl)-ethyl]-amine], for which the IC50 was 655 nM.

As for `CCc1nc(NCCc2ccc(OC)cc2)cc(-c2cccc(OC)c2)n1` [Example 18, [2-Ethyl-6-(3-methoxy-phenyl)-pyrimidin-4-yl]-[2-(4-methoxy-phenyl)-ethyl]-amine], the 50% inhibitory concentration (IC50) came to 219 nM.

Compound `COc1ccc(CCNc2cc(-c3cccc(OC)c3)nc(N(C)C)n2)cc1` [Example 19, 6-(3-Methoxy-phenyl)-N*4*-[2-(4-methoxy-phenyl)-ethyl]-N*2*,N*2*-dimethyl-pyrimidine-2,4-diamine hydrochloride] registered a concentration for half-maximal inhibition (IC50) of 4650 nM. This IC50 is about 21-fold higher than that of the compound before.

Consider `COc1ccc(CCNc2cc(-c3ccc(F)c(C(=O)O)c3)nc(OC)n2)cc1` [Example 20(a), 2-Fluoro-5-{2-methoxy-6-[2-(4-methoxy-phenyl)-ethylamino]-pyrimidin-4-yl}-benzoic acid], for which the IC50 came to 0.4 nM.

The compound `COc1ccc(CCNc2cc(-c3ccc[n+]([O-])c3)nc(OC)n2)cc1` [Example 21(a), [2-Methoxy-6-(1-oxy-pyridin-3-yl)-pyrimidin-4-yl]-[2-(4-methoxy-phenyl)-ethyl]-amine] gave an IC50 of 149 nM.

Compound `COc1nc(NCCc2ccc3c(c2)OC(F)(F)O3)cc(-c2ccc[n+]([O-])c2)n1` [Example 21(b), [2-(2,2-Difluoro-benzo[1,3]dioxol-5-yl)-ethyl]-[2-methoxy-6-(1-oxy-pyridin-3-yl)-pyrimidin-4-yl]-amine] had an IC50 of 2150 nM. This IC50 is about 14-fold higher than that of the compound before.

`CCOC(=O)C(C)(C)Oc1cccc(-c2cc(NCCc3ccc(OC)cc3)nc(OC)n2)c1` [Example 22(a), 2-(3-{2-Methoxy-6-[2-(4-methoxy-phenyl)-ethylamino]-pyrimidin-4-yl}-phenoxy)-2-methyl-propionic acid ethyl ester] showed an IC50 of 60 nM.

As to `COC(=O)COc1cccc(-c2cc(NCCc3ccc(Cl)cc3Cl)nc(OC)n2)c1` [Example 22(c), (3-{6-[2-(2,4-Dichloro-phenyl)-ethylamino]-2-methoxy-pyrimidin-4-yl}-phenoxy)-acetic acid methyl ester], the 50% inhibitory concentration (IC50) came out at 0.6 nM.

With `COC(=O)Cn1cc(-c2cc(NCCc3c(F)cccc3Cl)nc(OC)n2)ccc1=O` [Example 22(d), (5-{6-[2-(2-Chloro-6-fluoro-phenyl)-ethylamino]-2-methoxy-pyrimidin-4-yl}-2-oxo-2H-pyridin-1-yl)-acetic acid methyl ester], the IC50 was 14 nM.

`COc1nc(NCCc2ccc(Cl)cc2Cl)cc(-c2cccc(OCC#N)c2)n1` [Example 22(e), (3-{6-[2-(2,4-Dichloro-phenyl)-ethylamino]-2-methoxy-pyrimidin-4-yl}-phenoxy)-acetonitrile]: the midpoint of inhibition, the IC50, lay at 0.4 nM. This IC50 lies about 35-fold lower than the previous one.

`COc1nc(NCCc2c(F)cccc2Cl)cc(-c2ccc(=O)n(CC(=O)O)c2)n1` [Example 23(c), (5-{6-[2-(2-Chloro-6-fluoro-phenyl)-ethylamino]-2-methoxy-pyrimidin-4-yl}-2-oxo-2H-pyridin-1-yl)-acetic acid] yielded an IC50 of 0.3 nM.

`COc1ccc(CCNc2cc(-c3cccc(Cc4nnn[nH]4)c3)nc(OC)n2)cc1` [Example 24(b), [2-(4-Methoxy-phenyl)-ethyl]-{2-methoxy-6-[3-(1H-tetrazol-5-ylmethyl)-phenyl]-pyrimidin-4-yl}-amine hydrochloride] displayed an IC50 of 0.1 nM.

`COc1ccc(CCNc2cc(-c3ccc(OC)c(-c4nnn[nH]4)c3)nc(OC)n2)cc1` [Example 24(c), {2-Methoxy-6-[4-methoxy-3-(1H-tetrazol-5-yl)-phenyl]-pyrimidin-4-yl}-[2-(4-methoxy-phenyl)-ethyl]-amine] returned an IC50 of 0.5 nM.

The compound `COc1nc(NCCc2ccc(OC)c(OC)c2)cc(-c2cccc(C(=O)NCCN3CCCC3)c2)n1` [Example 25(b), 3-{6-[2-(3,4-Dimethoxy-phenyl)-ethylamino]-2-methoxy-pyrimidin-4-yl}-N-(2-pyrrolidin-1-yl-ethyl)-benzamide] registered an IC50 of 30 nM.

In turn, `COc1ccc(CCNc2cc(-c3ccsc3/C=N/O)nc(OC)n2)cc1` [Example 26(d), 3-{2-Methoxy-6-[2-(4-methoxy-phenyl)-ethylamino]-pyrimidin-4-yl}-thiophene-2-carbaldehyde oxime] gave an IC50 of 0.4 nM.

`COc1ccc(CCNc2cc(-c3ccc(/C(C)=N\O)s3)nc(OC)n2)cc1` [Example 26(e), 1-(5-{2-Methoxy-6-[2-(4-methoxy-phenyl)-ethylamino]-pyrimidin-4-yl}-thiophen-2-yl)-ethanone oxime] yielded a half-maximal inhibitory concentration (IC50) of 0.8 nM.

`COc1ccc(CCNc2cc(-c3ccc(F)c(/C=N\O)c3)nc(OC)n2)cc1` [Example 26, 2-Fluoro-5-{2-methoxy-6-[2-(4-methoxy-phenyl)-ethylamino]-pyrimidin-4-yl}-benzaldehyde oxime] returned an IC50 of 4.5 nM.

`COc1ccc(CCNc2cc(-c3ccc(F)c(CN)c3)nc(OC)n2)cc1` [Example 27, [6-(3-Aminomethyl-4-fluoro-phenyl)-2-methoxy-pyrimidin-4-yl]-[2-(4-methoxy-phenyl)-ethyl]-amine hydrochloride] gave a half-maximal inhibitory concentration (IC50) of 41 nM.

In the case of `COCC(=O)NCc1cc(-c2cc(NCCc3ccc(OC)cc3)nc(OC)n2)ccc1F` [Example 28, N-(2-Fluoro-5-{2-methoxy-6-[2-(4-methoxy-phenyl)-ethylamino]-pyrimidin-4-yl}-benzyl)-2-methoxy-acetamide hydrochloride], inhibition was half-maximal at 9 nM (IC50).
